The supplement of paper PMC11208160

Assay: recombinant barcode read abundance after kanamycin selection (control-corrected) (log10(CPM+1)); higher = more efficient recombination; sequences stand for … in AGTGCAGAGAAAATCGGCCAGTTTTCTCTGCCTGCAGTCCGCATGCCGT…AGATTTATGCAGCGGACTGCCTTTCTCCCAAAGTGATAAACCGGACAGTATCATGGACCGGTTTTCCCGGTAATCCGTATTTGCAAGGTTGGTTTCACT; site = the 11-nt target
Method in brief: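 Recombination efficiency in this pooled E. coli screen uses counts per million of barcodes at recombinant junctions, averaged and corrected against the control. The reported form is log10(CPM+1). Two replicates were plated on chloramphenicol/ampicillin LB agar as control and two on chloramphenicol/ampicillin/kanamycin with 0.1 mM IPTG.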
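Note: IS621 recombinase and bridge RNA in Escherichia coli cells.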

Sequence	recombinant barcode read abundance (log10)
TCTAACCCTTGGGTTCTAACCTGTTGCAT (site TCTAAGCCTAT)	0.028
TCTAACCCTTGGGTTCTAACCTGTTGCAT (site TCTAATCCTAT)	0.0655
TCTAATCCTTGGGTTCTAACCTGTTGCAT (site TCTAAACCTAT)	0.11
TCTAATCCTTGGGTTCTAACCTGTTGCAT (site TCTAACCCTAT)	0.0519
TCTAATCCTTGGGTTCTAACCTGTTGCAT (site TCTAAGCCTAT)	0.0992
TCTAATCCTTGGGTTCTAACCTGTTGCAT (site TCTAATCCTAT)	0.025
TCTAATTCTTGGGTTCTAACCTGTTGCAT (site TCTAATTCTAT)	0.0913
TCTAATTCTTGGGTTCTAACCTGTTGCAT (site TCTGACTCTAT)	0.186
TCTAATTCTTGGGTTCTAACCTGTTGCGT (site TCTAATTCTAC)	0.095
TCTAATTCTTGGGTTCTAACCTGTTGCGT (site TCTCATTCTAC)	0.162
TCTAATTCTTGGGTTCTAACCTGTTGCGT (site TCTGATTCTAC)	0.899
TCTAATTCTTGGGTTCTAACCTGTTGCGT (site TCTTATTCTAC)	0.047
TCTAGAGCTTGGGTTCTAACCTGTTGCCT (site TCTAGAACTAG)	0.0712
TCTAGAGCTTGGGTTCTAACCTGTTGCCT (site TCTAGACCTAG)	0.228
TCTAGAGCTTGGGTTCTAACCTGTTGCCT (site TCTAGAGCTAG)	0.0183
TCTAGAGCTTGGGTTCTAACCTGTTGCCT (site TCTAGATCTAG)	0.339
TCTAGGACTTGGGTTCTAACCTGTTGCAA (site CGACAATCTAA)	0.29
TCTAGGACTTGGGTTCTAACCTGTTGCAA (site TCTAGGACTTT)	0.52
TCTCACGCTTGGGTTCTAACCTGTTGCCT (site TCGCACGCTAG)	0.0772
TCTCACGCTTGGGTTCTAACCTGTTGCCT (site TCTCACGCTAG)	0.964
TCTCACTCTTGGGTTCTAACCTGTTGCCT (site TCACACTCTAG)	0.0111
TCTCACTCTTGGGTTCTAACCTGTTGCCT (site TCCCACTCTAG)	0.504

Sequence	recombinant barcode read abundance (log10)
TCTCACTCTTGGGTTCTAACCTGTTGCCT (site TCGCACTCTAG)	0.0924
TCTCACTCTTGGGTTCTAACCTGTTGCCT (site TCTCACTCTAG)	1.54
TCTCATGCTTGGGTTCTAACCTGTTGCAT (site GACGGCACTCC)	0.0135
TCTCATGCTTGGGTTCTAACCTGTTGCAT (site TCTCATGCTAT)	0.224
TCTCGGCCTTGGGTTCTAACCTGTTGCCT (site TCTCAGCCTAG)	0.0701
TCTCGGCCTTGGGTTCTAACCTGTTGCCT (site TCTCCGCCTAG)	0.394
TCTCGGCCTTGGGTTCTAACCTGTTGCCT (site TCTCGGCCTAG)	0.202
TCTCGGCCTTGGGTTCTAACCTGTTGCCT (site TCTCTGCCTAG)	0.0561
TCTGACTCTTGGGTTCTAACCTGTTGCAT (site TCTAATTCTAT)	0.0501
TCTGACTCTTGGGTTCTAACCTGTTGCAT (site TCTGACTCTAT)	1.59
TCTGAGTCTTGGGTTCTAACCTGTTGCTG (site GCTGAGGCTCA)	0.141
TCTGAGTCTTGGGTTCTAACCTGTTGCTG (site TCTGAGTCTCA)	0.858
TCTGGAGCTTGGGTTCTAACCTGTTGCAG (site CCAGGAGCTCT)	0.0636
TCTGGAGCTTGGGTTCTAACCTGTTGCAG (site TCTGGAGCTCT)	0.938
TCTGGGGCTTGGGTTCTAACCTGTTGCCG (site TCTGGGGCTCA)	0.536
TCTGGGGCTTGGGTTCTAACCTGTTGCCG (site TCTGGGGCTCC)	1.44
TCTGGGGCTTGGGTTCTAACCTGTTGCCG (site TCTGGGGCTCG)	1.89
TCTGGGGCTTGGGTTCTAACCTGTTGCCG (site TCTGGGGCTCT)	0.618
TCTGGGGCTTGGGTTCTAACCTGTTGCTG (site TCTGGGGCTCA)	2.04
TCTGGGGCTTGGGTTCTAACCTGTTGCTG (site TCTGGGGCTCC)	0.216
TCTGGGGCTTGGGTTCTAACCTGTTGCTG (site TCTGGGGCTCG)	0.792
TCTGGGGCTTGGGTTCTAACCTGTTGCTG (site TCTGGGGCTCT)	0.936

Sequence	recombinant barcode read abundance (log10)
TCTTAGGCTTGGGTTCTAACCTGTTGCGT (site TCCTAGGCTGC)	0.21
TCTTAGGCTTGGGTTCTAACCTGTTGCGT (site TCTTAGGCTAC)	1.63
TCTTATACTTGGGTTCTAACCTGTTGCGT (site TCTTATACTAC)	0.403
TCTTATACTTGGGTTCTAACCTGTTGCGT (site TCTTATACTAT)	0
TCTTATTCTTGGGTTCTAACCTGTTGCCT (site TCTGATTCTCG)	0.062
TCTTATTCTTGGGTTCTAACCTGTTGCCT (site TCTTATTCTAG)	0.0342
TCTTGGACTTGGGTTCTAACCTGTTGCTG (site TCTTGGACTAA)	0.159
TCTTGGACTTGGGTTCTAACCTGTTGCTG (site TCTTGGACTCA)	0.0828
TCTTGGACTTGGGTTCTAACCTGTTGCTG (site TCTTGGACTGA)	0.174
TCTTGGACTTGGGTTCTAACCTGTTGCTG (site TCTTGGACTTA)	0.0733
TCTTGTTCTTGGGTTCTAACCTGTTGCCT (site ACTTGTTCTAG)	0.383
TCTTGTTCTTGGGTTCTAACCTGTTGCCT (site CCTTGTTCTAG)	0.179
TCTTGTTCTTGGGTTCTAACCTGTTGCCT (site GCTTGTTCTAG)	0.0895
TCTTGTTCTTGGGTTCTAACCTGTTGCCT (site TCTTGTTCTAG)	0.145
TGAAATACTTGGGTTCTAACCTGTTGCCT (site TGAAATACTAG)	0.232
TGAAATACTTGGGTTCTAACCTGTTGCCT (site TGAACTACTAG)	0.0246
TGAAATACTTGGGTTCTAACCTGTTGCCT (site TGAAGTACTAG)	0
TGAAATACTTGGGTTCTAACCTGTTGCCT (site TGAATTACTAG)	0.00965
TGAAATGCTTGGGTTCTAACCTGTTGCCT (site TGAAATGCTAG)	0.329
TGAAATGCTTGGGTTCTAACCTGTTGCCT (site TGACATGCTAG)	0.0158
TGAAATGCTTGGGTTCTAACCTGTTGCCT (site TGAGATGCTAG)	0.256
TGAAATGCTTGGGTTCTAACCTGTTGCCT (site TGATATGCTAG)	0.288

Sequence	recombinant barcode read abundance (log10)
TGAACGCCTTGGGTTCTAACCTGTTGCCT (site AGTACGCCTAG)	0.0861
TGAACGCCTTGGGTTCTAACCTGTTGCCT (site TGAACGCCTAG)	0.39
TGAACGTCTTGGGTTCTAACCTGTTGCCT (site TGAAAGTCTAG)	0.232
TGAACGTCTTGGGTTCTAACCTGTTGCCT (site TGAACGTCTAG)	0.384
TGAACGTCTTGGGTTCTAACCTGTTGCCT (site TGAAGGTCTAG)	0.0344
TGAACGTCTTGGGTTCTAACCTGTTGCCT (site TGAATGTCTAG)	0.378
TGAACTACTTGGGTTCTAACCTGTTGCCT (site TGAAATACTAG)	0.0445
TGAACTACTTGGGTTCTAACCTGTTGCCT (site TGAACTACTAG)	0.192
TGAACTACTTGGGTTCTAACCTGTTGCCT (site TGAAGTACTAG)	0.0835
TGAACTACTTGGGTTCTAACCTGTTGCCT (site TGAATTACTAG)	0.065
TGAAGTCCTTGGGTTCTAACCTGTTGCGG (site CGACGTCCTCC)	0.0219
TGAAGTCCTTGGGTTCTAACCTGTTGCGG (site TGAAGTCCTCC)	1.25
TGACAGGCTTGGGTTCTAACCTGTTGCAG (site GTACAGGCTCT)	0.278
TGACAGGCTTGGGTTCTAACCTGTTGCAG (site TGACAGGCTCT)	1.88
TGACCAGCTTGGGTTCTAACCTGTTGCCT (site TGACCAGCTAG)	1.05
TGACCAGCTTGGGTTCTAACCTGTTGCCT (site TGAGAAGCTAG)	0.0639
TGACCTTCTTGGGTTCTAACCTGTTGCCT (site TGACCTTCTAG)	0.526
TGACCTTCTTGGGTTCTAACCTGTTGCCT (site TGACGTTCTAG)	0.0226
TGACGCTCTTGGGTTCTAACCTGTTGCCT (site TGACGCTCTAG)	0.905
TGACGCTCTTGGGTTCTAACCTGTTGCCT (site TGCCGCTCTAG)	0.149
